Data on 19 molecules can be found in article PMC9490236, “Accurate de novo design of membrane-traversing macrocycles” (Cell, 2022).

Where a SMILES comes first, the peptide text is derived from it. [ ]: non-standard residue; d: D form. NMeF = CN[C@@H](Cc1ccccc1)C(=O)O; dNMeF = CN[C@H](Cc1ccccc1)C(=O)O; NMeL = CN[C@@H](CC(C)C)C(=O)O; dNMeL = CN[C@H](CC(C)C)C(=O)O; dNMeV = CN[C@@H](C(=O)O)C(C)C; NMeM = CN[C@@H](CCSC)C(=O)O; NMeV = CN[C@H](C(=O)O)C(C)C; dNMeA = CN[C@H](C)C(=O)O; Sar = CNCC(=O)O

For this data set the following is noted: for PAMPA_Papp_Avg / PAMPA_R1 / PAMPA_R3: PAMPA.

`CC[C@H](C)[C@@H]1NC(=O)[C@H](CC(C)C)NC(=O)[C@H](Cc2ccccc2)NC(=O)[C@@H](C)NC(=O)[C@H]2CCCN2C(=O)[C@@H]2CCCN2C(=O)[C@H]2CCCN2C(=O)[C@H](CC(C)C)NC(=O)[C@@H](C(C)C)NC(=O)[C@@H](CC(C)C)N(C)C(=O)[C@@H]2CCCN2C1=O` [Design D11.17, PRO *DLEU DVAL LEU DPRO PRO DPRO DALA PHE LEU ILE] (cyclo([dP][dA]FLIP[dNMeL][dV]L[dP]P)): the PAMPA_Papp_Avg result is “BQL”, the PAMPA_R1 entry is given as “BQL” and the PAMPA_R3 entry is on record as “BQL”.
For `CC(C)C[C@@H]1C(=O)N[C@H](CC(C)C)C(=O)N(C)[C@H](Cc2ccccc2)C(=O)N(C)[C@@H](CC(C)C)C(=O)N(C)[C@H](C)C(=O)N2CCC[C@H]2C(=O)N(C)[C@H](Cc2ccccc2)C(=O)N[C@@H](C(C)C)C(=O)N[C@H](CC(C)C)C(=O)N2CCC[C@H]2C(=O)N1C` [Design D10.14, *DPHE VAL DLEU PRO *DLEU DLEU *DPHE *LEU *DALA PRO] (cyclo([NMeL][dNMeA]P[dNMeF]V[dL]P[dNMeL][dL][dNMeF])), the PAMPA_Papp_Avg entry is given as “BQL”, the PAMPA_R1 entry is listed as “BQL” and the PAMPA_R3 entry is recorded as “BQL”.
For the molecule `CC[C@@H](C)[C@H]1NC(=O)[C@@H](CC(C)C)N(C)C(=O)[C@H](CC(C)C)NC(=O)[C@@H](C(C)C)NC(=O)[C@@H]2CCCN2C(=O)[C@H]2CCCN2C(=O)[C@@H]([C@H](C)CC)NC(=O)[C@@H](C)N(C)C(=O)[C@@H]([C@H](C)CC)NC(=O)[C@H](Cc2ccccc2)N(C)C(=O)[C@H]2CCCN2C(=O)[C@@H](Cc2ccccc2)NC1=O` [Design D12.7, DPHE DPRO *PHE DILE *DALA DILE DPRO PRO DVAL LEU *DLEU DILE] (cyclo([dV]L[dNMeL][dI][dF][dP][NMeF][dI][dNMeA][dI][dP]P)), the PAMPA_Papp_Avg result is reported as “BQL”, the PAMPA_R1 entry is recorded as “BQL” and the PAMPA_R3 entry is given as “BQL”.
For the molecule `CC[C@@H](C)[C@H]1NC(=O)[C@H](CC(C)C)NC(=O)[C@H](CC(C)C)N(C)C(=O)[C@H]2CCCN2C(=O)[C@@H](CC(C)C)NC(=O)[C@@H]2CCCN2C(=O)[C@H](CC(C)C)N(C)C(=O)[C@@H](Cc2ccccc2)N(C)C(=O)[C@H](CC(C)C)N(C)C(=O)[C@H](CC(C)C)N(C)C1=O` [Design D10.12, *LEU LEU DILE *LEU *LEU *DPHE *LEU PRO DLEU DPRO] (cyclo(L[dI][NMeL][NMeL][dNMeF][NMeL]P[dL][dP][NMeL])), the PAMPA_Papp_Avg entry is listed as “BQL”, the PAMPA_R1 result was “BQL” and the PAMPA_R3 result is recorded as “BQL”.
Regarding “PRO DPRO DPHE *DLEU *DPHE DLEU ILE PRO *DLEU LEU [Design D10.15]”, the PAMPA_Papp_Avg result was “BQL”, the PAMPA_R1 result was “BQL” and the PAMPA_R3 entry was “BQL”.
In the case of `CC(C)[C@H]1NC(=O)[C@H](C)NC(=O)[C@@H]2CCCN2C(=O)[C@H]2CCCN2C(=O)[C@@H](C(C)C)NC(=O)[C@H]2CCCN2C(=O)[C@@H](C)NC(=O)[C@@H](Cc2ccccc2)N(C)C(=O)[C@H](Cc2ccccc2)NC1=O` [Design D9.35, DPRO DVAL DPRO PRO ALA DVAL PHE *DPHE DALA] (cyclo(A[dV]F[dNMeF][dA][dP][dV][dP]P)), the PAMPA_Papp_Avg result was “BQL”, the PAMPA_R1 result was “BQL” and the PAMPA_R3 result is listed as “BQL”.
Consider `CC[C@H](C)[C@@H]1NC(=O)[C@@H](C)N(C)C(=O)[C@@H](C)N(C)C(=O)[C@H](C(C)C)NC(=O)[C@H]2CCCN2C(=O)[C@@H]2CCCN2C(=O)[C@H](C(C)C)NC(=O)[C@H]2CCCN2C(=O)[C@@H]2CCCN2C1=O` [Design D9.12, PRO DPRO VAL PRO DPRO VAL *DALA *DALA ILE] (cyclo(IP[dP]VP[dP]V[dNMeA][dNMeA])), for which the PAMPA_Papp_Avg result is “BQL”, the PAMPA_R1 entry was “BQL” and the PAMPA_R3 result is listed as “BQL”.
In turn, `CC(C)C[C@@H]1NC(=O)[C@@H](C(C)C)NC(=O)[C@H](CC(C)C)N(C)C(=O)[C@H]2CCCN2C(=O)[C@@H](C(C)C)NC(=O)[C@H]2CCCN2C(=O)[C@@H](C(C)C)NC(=O)[C@@H](Cc2ccccc2)N(C)C(=O)[C@H](CC(C)C)N(C)C1=O` (single isomer, unassigned) [Design D9.8.p2, *LEU DVAL LEU *LEU *DPHE DVAL DPRO DVAL DPRO] gave a PAMPA_Papp_Avg of 9.35E-07, a PAMPA_R1 of 1.16E-06 and a PAMPA_R3 of 8.61E-07.
Take `CC[C@H](C)[C@@H]1NC(=O)[C@H](C)NC(=O)[C@@H](CC(C)C)NC(=O)[C@H](CC(C)C)N(C)C(=O)[C@H](CC(C)C)NC(=O)[C@@H](Cc2ccccc2)N(C)C(=O)[C@@H]2CCCN2C(=O)[C@H]([C@@H](C)CC)NC(=O)[C@H](Cc2ccccc2)N(C)C(=O)[C@@H](CC(C)C)NC1=O` [Design D10.55, DLEU ALA ILE DLEU *PHE ILE PRO *DPHE LEU *LEU] (cyclo(AI[dL][NMeF]IP[dNMeF]L[NMeL][dL])): the PAMPA_Papp_Avg entry is recorded as “BQL”, the PAMPA_R1 entry is given as “BQL” and the PAMPA_R3 entry was “BQL”.
Regarding `CC[C@H](C)[C@@H]1NC(=O)[C@@H]2CCCN2C(=O)[C@H]2CCCN2C(=O)[C@@H](CC(C)C)NC(=O)[C@@H](CC(C)C)N(C)C(=O)[C@@H]2CCCN2C(=O)[C@H](Cc2ccccc2)N(C)C(=O)[C@@H](Cc2ccc(O)cc2)NC1=O` [Design D8.13, PRO ILE DTYR *PHE PRO *DLEU DLEU DPRO] (cyclo(I[dY][NMeF]P[dNMeL][dL][dP]P)), the PAMPA_Papp_Avg entry was “BQL”, the PAMPA_R1 result is “BQL” and the PAMPA_R3 entry is “BQL”.
Consider `CC[C@H](C)[C@@H]1NC(=O)[C@H](CCSC)N(C)C(=O)[C@H]2CCCN2C(=O)[C@H](CC(C)C)NC(=O)[C@@H](Cc2ccccc2)NC(=O)[C@@H]2CCCN2C(=O)[C@H]2CCCN2C(=O)[C@H]([C@@H](C)CC)NC(=O)[C@@H](CC(C)C)N(C)C(=O)[C@H](CC(C)C)N(C)C1=O` [Design D10.36, ILE *LEU *DLEU ILE DPRO PRO DPHE LEU DPRO *MET] (cyclo([dF]L[dP][NMeM]I[NMeL][dNMeL]I[dP]P)), for which the PAMPA_Papp_Avg entry is “BQL”, the PAMPA_R1 result is on record as “BQL” and the PAMPA_R3 entry was “BQL”.
Regarding “PRO DPRO DALA DPHE DLEU ILE DPHE *DALA LEU PRO NLE [Design D11.14.p1]”, the PAMPA_Papp_Avg result is given as “BQL”, the PAMPA_R1 entry was “BQL” and the PAMPA_R3 entry was “BQL”.
For `CC[C@@H](C)[C@H]1NC(=O)[C@H](C(C)C)NC(=O)[C@H](Cc2ccccc2)NC(=O)[C@H](C)NC(=O)[C@@H]2CCCN2C(=O)[C@H]2CCCN2C(=O)[C@H]2CCCN2C(=O)[C@H](CC(C)C)N(C)C(=O)[C@@H](C)N(C)C(=O)[C@H](C(C)C)NC1=O` [Design D10.38, VAL *DALA *LEU DPRO DPRO PRO ALA PHE VAL DILE] (cyclo(AFV[dI]V[dNMeA][NMeL][dP][dP]P)), the PAMPA_Papp_Avg entry is given as “BQL”, the PAMPA_R1 result is “BQL” and the PAMPA_R3 result is on record as “BQL”.
Consider `CC(C)C[C@@H]1C(=O)N[C@H](C(C)C)C(=O)N[C@@H](C)C(=O)N2CCC[C@H]2C(=O)N2CCC[C@H]2C(=O)N[C@@H](C)C(=O)N2CCC[C@@H]2C(=O)N[C@@H](Cc2ccccc2)C(=O)N2CCC[C@H]2C(=O)N[C@@H](C(C)C)C(=O)N1C` [Design D10.53, ALA DPRO PHE PRO VAL *DLEU DVAL ALA PRO PRO] (cyclo(APPA[dP]FPV[dNMeL][dV])), for which the PAMPA_Papp_Avg result is given as “BQL”, the PAMPA_R1 result is “BQL” and the PAMPA_R3 result is listed as “BQL”.
As for `CC[C@H](C)[C@@H]1NC(=O)[C@@H](CC(C)C)NC(=O)[C@H]2CCCN2C(=O)[C@@H]2CCCN2C(=O)[C@H](C)NC(=O)[C@H]2CCCN2C(=O)[C@@H]2CCCN2C(=O)[C@H](C)NC(=O)[C@@H](C(C)C)N(C)C1=O` [Design D9.37, DPRO DLEU ILE *DVAL ALA PRO DPRO ALA PRO] (cyclo(AP[dP]AP[dP][dL]I[dNMeV])), the PAMPA_Papp_Avg entry is listed as “BQL”, the PAMPA_R1 entry is given as “BQL” and the PAMPA_R3 entry is “BQL”.
For `CC[C@@H](C)[C@H]1NC(=O)[C@@H]2CCCN2C(=O)[C@H]2CCCN2C(=O)[C@@H](CC(C)C)NC(=O)[C@@H](C)N(C)C(=O)[C@H]2CCCN2C(=O)[C@H]2CCCN2C(=O)[C@H](C(C)C)NC1=O` [Design D8.24, DPRO PRO DILE VAL DPRO DPRO *DALA DLEU] (cyclo([dI]V[dP][dP][dNMeA][dL][dP]P)), the PAMPA_Papp_Avg entry was “BQL”, the PAMPA_R1 result is listed as “BQL” and the PAMPA_R3 entry is on record as “BQL”.
Consider `CC(C)C[C@@H]1NC(=O)[C@H](CC(C)C)N(C)C(=O)[C@@H](Cc2ccccc2)N(C)C(=O)[C@H](Cc2ccccc2)NC(=O)[C@@H]2CCCN2C(=O)[C@@H](C)NC(=O)[C@@H]2CCCN2C(=O)[C@H](CC(C)C)N(C)C(=O)[C@H](CC(C)C)N(C)C(=O)[C@@H](C(C)C)NC1=O` [Design D10.13, *LEU LEU DVAL *LEU *LEU PRO DALA PRO PHE *DPHE] (cyclo(F[dNMeF][NMeL]L[dV][NMeL][NMeL]P[dA]P)), for which the PAMPA_Papp_Avg result is “BQL”, the PAMPA_R1 result was “BQL” and the PAMPA_R3 result was “BQL”.
For `CC(C)C[C@@H]1NC(=O)[C@@H]2CCCN2C(=O)[C@H]2CCCN2C(=O)[C@@H](CC(C)C)N(C)C(=O)[C@@H](Cc2ccccc2)N(C)C(=O)[C@@H](CC(C)C)NC(=O)[C@@H](CC(C)C)N(C)C(=O)[C@@H]2CCCN2C(=O)[C@H](CC(C)C)N(C)C(=O)[C@H](CC(C)C)N(C)C1=O` [Design D10.23, PRO LEU *LEU *LEU PRO *DLEU DLEU *DPHE *DLEU DPRO] (cyclo(L[NMeL][NMeL]P[dNMeL][dL][dNMeF][dNMeL][dP]P)), the PAMPA_Papp_Avg result is given as “BQL”, the PAMPA_R1 result is “BQL” and the PAMPA_R3 result is “BQL”. For the setting “Caco-2”, the “permeability in transwell assays” value is reported as “not permeable”.
With `CC(C)C[C@H]1C(=O)N[C@@H](C)C(=O)N(C)CC(=O)N2CCC[C@@H]2C(=O)N(C)[C@@H](C(C)C)C(=O)N[C@@H](C(C)C)C(=O)N2CCC[C@H]2C(=O)N2CCC[C@@H]2C(=O)N[C@@H](C)C(=O)N[C@H](C(C)C)C(=O)N1C` [Design D10.66, PRO DPRO ALA DVAL *LEU ALA *GLY DPRO *VAL VAL] (cyclo(A[Sar][dP][NMeV]VP[dP]A[dV][NMeL])), the PAMPA_Papp_Avg result is recorded as “BQL”, the PAMPA_R1 entry is reported as “BQL” and the PAMPA_R3 entry is recorded as “BQL”.
